This test deals with Huh-7 cells containing the self-replicating, subgenomic HCV replicon. The experiment in a line: HCV replicon assay (luciferase reporter, 72 h). In kind it is cell-based. The note with it: Hepatitis C virus, Huh-7, 72 h, read-out: HCV Replicon Activity (EC50). The procedure: Huh-7 cells containing the self-replicating, subgenomic HCV replicon with a stable luciferase (LUC) reporter were cultured in Dulbecco's modified Eagle's medium (DMEM) containing 2 mM L-glutamine and supplemented with 10% heat-inactivated fetal bovine serum (FBS), 1% penicillin-streptomyocin, 1% nonessential amino acids, and 0.5 mg/ml G418.
On the first day, 5,000 HCV replicon cells were plated per well in a 96-well plate. On the following day, test compounds were solubilized in 100% DMSO to 100× the desired final testing concentration. Each compound was then serially diluted (1:3) up to 9 different concentrations. Compounds in 100% DMSO are reduced to 10% DMSO by diluting 1:10 in cell culture media. The compounds were diluted to 10% DMSO with cell culture media, which were used to dose the HCV replicon cells in 96-well format. The final DMSO concentration was 1%. The HCV replicon cells were incubated at 37° C. for 72 hours. At 72 hours, cells were processed when the cells are still subconfluent. Compounds that reduce the LUC signal are determined by Bright-Glo Luciferase Assay (Promega, Madison, Wis.). % Inhibition was determined for each compound concentration in relation to the control cells (untreated HCV replicon) to calculate the EC50.
A general note: In antiviral work, replicon cells carry a viral genome segment that copies itself.

SMILES strings stand for the structures.

Regarding `C[C@H](NP(=O)(Oc1ccccc1)O[C@@H](C)[C@H]1O[C@@H](n2cnc3c(N)ncnc32)[C@@H]2OC(=O)O[C@@H]21)C(=O)OCC(C)(C)C` (stereo partly drawn) [A12, 2′,3′-O-carbonyl-5′(S)—C-methyladenosine 5′-[phenyl(neopentoxy-L-alaninyl)]phosphate], the EC50 was below 1000 nM. With `C[C@H](NP(=O)(Oc1ccccc1)O[C@@H](C)[C@H]1O[C@@H](n2cnc3c(N)ncnc32)[C@@H]2OC(=O)O[C@@H]21)C(=O)OC1CCCCC1` (stereo partly drawn) [A13, 2′,3′-O-carbonyl-5′(S)—C-methyladenosine 5′-[phenyl(cyclohexoxy-L-alaninyl)]phosphate], the EC50 is below 1000 nM.

As to `CCC(=O)O[C@H]1[C@@H](OC(=O)CC)[C@H](n2cnc3c(N)ncnc32)O[C@@H]1[C@H](C)OP(=O)(N[C@@H](C)C(=O)OC(C)C)Oc1ccccc1` (stereo partly drawn) [A14, 2′,3′-O-dipropionyl-5′(S)—C-methyladenosine 5′-[phenyl(isopropoxy-L-alaninyl)]phosphate], the EC50 is below 1000 nM.

For the molecule `COC(=O)[C@H](C)NP(=O)(Oc1ccccc1)O[C@@H](C)[C@H]1O[C@@H](n2cnc3c(N)ncnc32)[C@H](O)[C@@H]1O` (stereo partly drawn) [A15, 5′(S)—C-methyladenosine 5′-[phenyl(methoxy-L-alaninyl)]phosphate], the concentration giving a half-maximal response (EC50) is below 30000 nM. Next, `COC(=O)[C@H](C)NP(=O)(Oc1ccccc1)O[C@@H](C)[C@H]1O[C@@H](n2cnc3c(N)ncnc32)[C@@H]2OC(=O)O[C@@H]21` (stereo partly drawn) [A16, 2′,3′-O-carbonyl-5′(S)—C-methyladenosine 5′-[phenyl(methoxy-L-alaninyl)]phosphate]: below 30000 nM; `CCC(=O)O[C@H]1[C@@H](OC(=O)CC)[C@H](n2cnc3c(N)ncnc32)O[C@@H]1[C@H](C)OP(=O)(N[C@@H](C)C(=O)OCC(C)(C)C)Oc1ccccc1` (stereo partly drawn) [A17, 2′,3′-O-dipropionyl-5′(S)—C-methyladenosine 5′-[phenyl(neopentoxy-L-alaninyl)]phosphate]: below 1000 nM; `CCOC(=O)[C@H](C)NP(=O)(Oc1cccc2ccccc12)O[C@@H](C)[C@H]1O[C@@H](n2cnc3c(N)ncnc32)[C@H](O)[C@@H]1O` (stereo partly drawn) [A19, 5′(S)—C-methyladenosine 5′-[1-naphthyl(ethoxy-L-alaninyl)]phosphate]: below 1000 nM. On to `CC(C)OC(=O)[C@H](C)NP(=O)(Oc1cccc2ccccc12)O[C@@H](C)[C@H]1O[C@@H](n2cnc3c(N)ncnc32)[C@H](O)[C@@H]1O` (stereo partly drawn) [A20, 5′(S)—C-methyladenosine 5′-[1-naphthyl(isopropoxy-L-alaninyl)]phosphate], for which the EC50 is below 1000 nM. In the case of `C[C@H](NP(=O)(Oc1cccc2ccccc12)O[C@@H](C)[C@H]1O[C@@H](n2cnc3c(N)ncnc32)[C@H](O)[C@@H]1O)C(=O)OCc1ccccc1` (stereo partly drawn) [A21, 5′(S)—C-methyladenosine 5′-[1-naphthyl(benzyloxy-L-alaninyl)]phosphate], the 50% effective concentration (EC50) was below 1000 nM.

Regarding `CCC(=O)O[C@H]1[C@@H](OC(=O)CC)[C@H](n2cnc3c(N)ncnc32)O[C@@H]1[C@H](C)OP(=O)(N[C@@H](C)C(=O)OC(C)C)Oc1cccc2ccccc12` (stereo partly drawn) [A22, 2′,3′-O-dipropionyl-5′-(S)—C-methyladenosine 5′-[1-naphthyl(isopropoxy-L-alaninyl)]phosphate], the EC50 was below 1000 nM. In the case of `CC(C)OC(=O)[C@H](C)NP(=O)(Oc1cccc2ccccc12)O[C@@H](C)[C@H]1O[C@@H](n2cnc3c(N)ncnc32)[C@@H]2OC(=O)O[C@@H]21` (stereo partly drawn) [A23, 2′,3′-O-carbonyl-5(S)—C-methyladenosine 5′-[1-naphthyl(isopropoxy-L-alaninyl)]phosphate] it was below 1000 nM; in that of `CC[C@H](OP(=O)(N[C@@H](C)C(=O)OC(C)C)Oc1ccccc1)[C@H]1O[C@@H](n2cnc3c(N)ncnc32)[C@H](O)[C@@H]1O` (stereo partly drawn) [A24, 5′(S)—C-ethyladenosine 5′-[phenyl(isopropoxy-L-alaninyl)]phosphate], below 100000 nM.

The EC50 is the concentration at which the effect is half-maximal.

For the origin of these results see patent publication US20120070411A1, “SUBSTITUTED NUCLEOTIDE ANALOGS” (Alios BioPharma, Inc., priority 2010, published 2012).
